# Values quoted from earlier work as cited in patent US7235142B2, “Non-toxic corrosion-protection rinses and seals based on cobalt” (University of Dayton, priority 2002, dated 2007).
# Conditions: pH 7
row,Structure (SMILES),Solubility in Water [mM]
1,N.N.N.N.N.N.[Cl-].[Cl-].[Cl-].[Co+3] [Hexaammine cobalt (III) chloride],220
2,N.N.N.N.N.[Cl][Co]([Cl])[Cl] [Pentaammine cobalt (III) chloride],930
3,[O-][Cl+3]([O-])([O-])O [Sodium perchlorate],15000
4,[O-][Cl+3]([O-])([O-])[O-].[O-][Cl+3]([O-])([O-])[O-].[Sr+2] [Strontium perchlorate],11000
